The source of these data is ChEMBL document CHEMBL1147867, “Identification of antitumour activity of novel derivatives of 8-aryl-2,6,7,8-tetrahydroimidazo[2,1-c][1,2,4]triazine-3,4-dione and 8-aryl-4-imino-2,3,7,8-tetrahydroimidazo[2,1-c][1,2,4]triazin-3(6H)-one” (Bioorg Med Chem, 2007).

Each structure is given as a SMILES string. In brackets after ≈: the same amount, converted by molar mass. Activity calls are given as the source filed them. The rule behind the calls is not given here. Where only a bound is given, the exact number is not on record here.

One data set has as its system Staphylococcus aureus. Briefly: Antibacterial activity against Staphylococcus aureus after 24 hrs by microdilution broth method. The class given is functional. (In general: Dilution methods test growth across graded concentrations, often in twofold steps.)
The subject of data set [1] is Staphylococcus epidermidis. In words: Antibacterial activity against Staphylococcus epidermidis after 24 hrs by microdilution broth method. The class given is functional.
In a further data set the test system is Streptococcus pyogenes. In words: Antibacterial activity against Streptococcus pyogenes after 24 hrs by microdilution broth method. Type of data set: functional.
The test system of the next data set is Escherichia coli. Briefly: Antibacterial activity against Escherichia coli after 24 hrs by microdilution broth method. The class given is functional.
A short description of data set [2]: Cytotoxicity against Vero cells at 10 ug/ml after 72 hrs. Type of data set: cell-based. The note with it: chlorocebus sabaeus, read-out: Inhibition.
Data set [3] in a line: Cytotoxicity against Vero cells at 50 ug/ml after 72 hrs. The class given is cell-based. The note with it: chlorocebus sabaeus, read-out: Inhibition.
Data set [4] in a line: Cytotoxicity against human LS180 cells at 10 ug/ml after 72 hrs. The note with it: LS180, 72 h. The class given is functional.
Data set [5] is described as follows: Cytotoxicity against human LS180 cells at 50 ug/ml after 72 hrs. The class given is functional. The note with it: LS180, 72 h.
Data set [6] deals with HeLa. Briefly: Cytotoxicity against human HeLa cells at 10 ug/ml after 72 hrs. The class given is functional.
Data set [7] has as its system HeLa. In words: Cytotoxicity against human HeLa cells at 50 ug/ml after 72 hrs. Type of data set: functional.
In data set [8] the test system is T47D. In words: Cytotoxicity against human T47D cells at 10 ug/ml after 72 hrs. The class given is functional.
Data set [9] concerns T47D. In words: Cytotoxicity against human T47D cells at 50 ug/ml after 72 hrs. Type of data set: functional.
The subject of data set [10] is A549. Briefly: Anticancer activity against human A549 cells at 10 ug/ml after 72 hrs. Type of data set: functional. To be noted: A549, 72 h.
For data set [11], the system named is A549. In words: Anticancer activity against human A549 cells at 50 ug/ml after 72 hrs. The class given is functional. The note with it: A549, 72 h.
For a further data set, the system named is HT-29. Briefly: Anticancer activity against human HT 29 cells. Type of data set: functional, cell-based.
Another data set has as its system Jurkat. In words: Anticancer activity against human jurkat cells. The class given is functional, cell-based.
Data set [12] can be described thus: Cell viability in HSF cells at 1 uM after 24 hrs by MTT assay. Type of data set: cell-based, Fibroblast. The note with it: human, read-out: Activity. On the technique in general: Tetrazolium assays rely on reduction of a dye to a coloured formazan, in cell work by metabolically active cells.
Data set [13] can be described thus: Cell viability in HSF cells at 50 uM after 24 hrs by MTT assay. Type of data set: cell-based, Fibroblast. To be noted: human, read-out: Activity.
Data set [14] in a line: Cell viability in HSF cells at 100 uM after 24 hrs by MTT assay. The class given is functional, Homo sapiens, Fibroblast.
Data set [15] concerns RPMI-8226. In words: Cell viability in human RPMI 8226 ECACC 87012702 cancer cells at 1 uM after 24 hrs by MTT assay. The class given is functional.
A short description of data set [16]: Acute toxicity in mouse. The class given is organism-based. To be noted: in vivo.
In data set [17] the test system is T47D. Briefly: Induction of DNA damage in T47D cells at 37.9 uM. Type of data set: functional, cell-based. The note with it: Homo sapiens.
In data set [18] the test system is HeLa. In words: Induction of DNA damage in HeLa cells at 37.9 uM. Type of data set: functional, cell-based. The note with it: Homo sapiens.
For another data set, the system named is LS180. Briefly: Induction of DNA damage in LS180 cells at 37.9 uM. The class given is functional, cell-based. The note with it: Homo sapiens.
The subject of data set [19] is RPMI-8226. In words: Cell viability in human RPMI 8226 ECACC 87012702 cancer cells at 50 uM after 24 hrs by MTT assay. Type of data set: functional.
Data set [20] concerns RPMI-8226. In words: Cell viability in human RPMI 8226 ECACC 87012702 cancer cells at 100 uM after 24 hrs by MTT assay. The class given is functional.

The term MIC denotes the lowest concentration found to suppress growth. With `COc1ccccc1N1CCN/C1=N\N`, the MIC with Staphylococcus aureus is 37.4 µM (≈ 7.71 µg/mL); in [1], 37.4 µM (≈ 7.71 µg/mL); in the data set with Streptococcus pyogenes, 74.8 µM (≈ 15.4 µg/mL); in the data set with Escherichia coli, 29.9 µM (≈ 6.17 µg/mL).
By inhibition is commonly meant the share of the control response that was lost under treatment. A higher inhibition goes with strong suppression. With `Cc1ccc(N2CCn3c2n[nH]c(=O)c3=N)cc1`, the cytotoxicity at 72 h, 10 ug/ml in data set [2] was 0%. In addition, the cytotoxicity at 72 h, 50 ug/ml in data set [3] was 0%. Further, the inhibition at 10 µg/mL is 32% in data set [4], 0% in the data set with HeLa [6], 0% in the data set with T47D [8] and 37% in the data set on A549 [10]. Further, the inhibition at 50 µg/mL in data set [5] is 45%; with HeLa [7], 0%; in the data set with T47D [9] it was 0%; in the data set on A549 [11], 38%. Moreover, the result in the data set with HT-29 and in the data set on Jurkat was Active.
With `Cc1cccc(N2CCN/C2=N\N)c1C`, the cytotoxicity at 72 h, 10 ug/ml in data set [2] was found to be 16%. The cytotoxicity at 72 h, 50 ug/ml in [3] was 14%. Besides, the inhibition at 10 µg/mL in data set [4] worked out at 6%; in the data set on HeLa [6], 8%; in the data set with T47D [8] it was 21%. Also, the inhibition at 50 µg/mL in [5] came out at 0%; with HeLa [7] it was 0%; in the data set on T47D [9] it was 25%. For the same molecule, the MIC was found to be 37.6 µM (≈ 7.68 µg/mL) against Staphylococcus aureus, 18.8 µM (≈ 3.84 µg/mL) in [1], 75.2 µM (≈ 15.4 µg/mL) with Streptococcus pyogenes and 18.8 µM (≈ 3.84 µg/mL) with Escherichia coli.
For `COc1ccc(N2CCN/C2=N\N)cc1`, the cytotoxicity at 72 h, 10 ug/ml in [2] came to 0%. In addition, in [3], the cytotoxicity at 72 h, 50 ug/ml is 0%. Besides, the results for the inhibition at 10 µg/mL (in data set [4]; with HeLa [6]; in the data set on T47D [8]) were 4%, 0% and 17%, respectively. In addition, the inhibition at 50 µg/mL was found to be 9% in data set [5], 0% in the data set on HeLa [7] and 23% in the data set with T47D [9]. The MIC against Staphylococcus aureus was 29.9 µM (≈ 6.17 µg/mL); in data set [1], 18.7 µM (≈ 3.86 µg/mL); in the data set on Streptococcus pyogenes, 59.8 µM (≈ 12.3 µg/mL); against Escherichia coli, 15 µM (≈ 3.09 µg/mL).
By LD50 is commonly meant the dose expected to kill half of the subjects tested. For `O=c1[nH]nc2n(c1=O)CCN2c1ccc(Cl)cc1`, the viability at 24 h, 1 µM in data set [12] came to 99%. The viability at 24 h, 50 µM in [13] came to 95%. The Activity was found to be 96% in [14], 104% in the data set on RPMI-8226 [15], 89% in the data set on RPMI-8226 [19] and 61% in the data set with RPMI-8226 [20]. Further, the cytotoxicity at 72 h, 10 ug/ml in data set [2] was determined as 0%. For the same molecule, in data set [3], the cytotoxicity at 72 h, 50 ug/ml worked out at 7%. Moreover, the inhibition at 10 µg/mL in data set [4] turned out to be 50%; with HeLa [6] it was 2%; in the data set with T47D [8], 5%; in the data set on A549 [10] it was 0%. Also, the inhibition at 50 µg/mL in data set [5] was found to be 35%; with HeLa [7], 26%; in the data set with T47D [9] it was 1%; in the data set on A549 [11] it was 15%. In addition, the LD50 in [16] was greater than 2000 mg/kg. The outcome in the data set with T47D [17], in the data set on HeLa [18] and with LS180 was Active.
`Cc1ccccc1N1CCN/C1=N\N`: the MIC stood at 39.3 µM (≈ 7.48 µg/mL) with Staphylococcus aureus, 31.4 µM (≈ 5.97 µg/mL) in [1], 78.6 µM (≈ 15 µg/mL) in the data set with Streptococcus pyogenes and 15.7 µM (≈ 2.99 µg/mL) in the data set on Escherichia coli.
For the molecule `N/N=C1\NCCN1c1ccccc1`, the cytotoxicity at 72 h, 10 ug/ml in data set [2] worked out at 0%. Also, in data set [3], the cytotoxicity at 72 h, 50 ug/ml is 0%. Further, the inhibition at 10 µg/mL in data set [4] stood at 1%; in the data set with HeLa [6], 6%; with T47D [8], 0%. The figures for the inhibition at 50 µg/mL (in [5]; in the data set with HeLa [7]; in the data set with T47D [9]) were 0%, 3% and 0%, respectively. Also, the MIC in the data set on Staphylococcus aureus amounted to 41.1 µM (≈ 7.24 µg/mL); in [1], 41.1 µM (≈ 7.24 µg/mL); against Streptococcus pyogenes, 65.8 µM (≈ 11.6 µg/mL); with Escherichia coli it was 41.1 µM (≈ 7.24 µg/mL).
For `O=c1[nH]nc2n(c1=O)CCN2c1ccccc1`, the viability at 24 h, 1 µM in data set [12] is 93%. Further, the viability at 24 h, 50 µM in data set [13] came out at 95%. For the same molecule, the Activity in data set [14] came to 94%; in the data set on RPMI-8226 [15], 96%; in the data set with RPMI-8226 [19], 96%; in the data set with RPMI-8226 [20], 86%. For the same molecule, the cytotoxicity at 72 h, 10 ug/ml in [2] turned out to be 7%. Also, the cytotoxicity at 72 h, 50 ug/ml in [3] turned out to be 30%. Besides, the inhibition at 10 µg/mL (in data set [4]; with HeLa [6]; in the data set with T47D [8]; in the data set on A549 [10]) was 0% in each case. Besides, the inhibition at 50 µg/mL stood at 12% in data set [5], 0% in the data set on HeLa [7], 0% with T47D [9] and 17% with A549 [11]. This molecule returned an LD50 in data set [16] of 1400 mg/kg.
On to `N/N=C1\NCCN1c1ccc(Cl)cc1`, for which the minimal inhibitory concentration (MIC) against Staphylococcus aureus came out at 29.5 µM (≈ 6.21 µg/mL); in [1], 18.4 µM (≈ 3.88 µg/mL); with Streptococcus pyogenes, 59.1 µM (≈ 12.5 µg/mL); in the data set on Escherichia coli it was 36.9 µM (≈ 7.77 µg/mL).
Consider `Cc1ccc(N2CCn3c2n[nH]c(=O)c3=O)cc1`, for which, in data set [12], the viability at 24 h, 1 µM stood at 93%. In addition, the viability at 24 h, 50 µM in data set [13] worked out at 97%. Moreover, the Activity in data set [14] stood at 92%; with RPMI-8226 [15], 95%; in the data set with RPMI-8226 [19], 91%; in the data set on RPMI-8226 [20] it was 83%. The cytotoxicity at 72 h, 10 ug/ml in data set [2] turned out to be 0%. Further, in data set [3], the cytotoxicity at 72 h, 50 ug/ml worked out at 0%. Moreover, the inhibition at 10 µg/mL was 2% in data set [4], 0% in the data set on HeLa [6], 14% in the data set on T47D [8] and 20% in the data set with A549 [10]. In addition, the inhibition at 50 µg/mL amounted to 0% in data set [5], 11% in the data set with HeLa [7], 22% with T47D [9] and 31% with A549 [11]. In addition, in data set [16], the LD50 was 1800 mg/kg.
